This is an account of results in US8822533B1, “Methods and compositions for repelling and/or killing insects” (The United States of America, as represented by the …, priority 2011, dated 2014).

Test [1] relates to Mosquitoes, either Aedes aegypti (Liverpool) or Anopheles stephensi Liston. The test is described as follows: K&D module in vitro bioassay: biting protection, knockdown and mortality. It is filed as in vivo. The following applies: for mortality at 0.0025 µM / mortality at 0.025 µM: Aedes aegypti; for mortality at 0.0025 µM: 24 h; for mortality at 0.025 µM: 48 h. As for the experimental part:
In vitro bioassays were conducted as described by Klun et. al. (Klun, J. A., et al., J. Med. Entomol., 40: 293-299 (2005)). Each test replicate consisted of 3 treatments: a control (EtOH); a standard (Deet, 4.54 nmol/μl); and an experimental compound (pyrethroid analogs, 4.54 nmol/ul). The 3 treatments were randomly assigned to consecutive cells in 2, 6-cell reservoirs connected in series to a single water-bath pump; thus, 4 replicates could be tested/run. Tests were performed in an Air Science USA hood, with an air movement velocity of approx. 110-120 ft./min., temperature of 25-27° C., and RH of 15-25%. A 6-celled reservoir was connected to and heated by a constant-temperature (38° C.) water circulator (Lauda E100, Wobser GMGH and Co., Konigshofell, Germany).
Prior to each test, the upper surface of each reservoir was coated with a thin layer of high-vacuum silicone grease (Dow Corning Corp., Midland, Mich.), and the cells then filled (approx. 6 ml. capacity) or topped-off with either: (1) expired human red blood cells suspended in citrate-phosphate-dextrose-adenine (CPDA) solution, not more than 1 month past expiration date, and to which 110 mg ATP/35 ml. blood-CPDA had been added on the day of testing; or (2) CPDA+ATP×^−3, usually made up or diluted to 10^−3 ATP on the day of testing. The filled cells were then covered with an Edicol collagen membrane (Devro, Sandy Run, S.C.) strip, and then with a just-treated (110 μl of 4.54 nmol/μl treatment or control solution) organdy cloth (G Street Fabrics, Rockville, Md.) strip. Mosquitoes used in tests were either Aedes aegypti_(Liverpool) or Anopheles stephensi_Liston. K&D modules containing 5 adult females/cell were placed over a Teflon separator atop each reservoir; the sliding floors opened allowing access to the treated organdy cloth and membrane-covered cell; and the number of mosquitoes biting (proboscis inserted through the cloth) and/or observed to be engorged within each cell at the end of a 3-5 min. exposure period was recorded. Mosquitoes were used only once in a test, and then frozen and discarded.
Only tests in which 3 or more females fed in the control cell were analyzed, as lower feeding rates are indicative of substandard feeding readiness of that group of mosquitoes.
[…] Data were collected to record knockdown in 6 minutes, one hour and 24 hours post exposure.

Test [2] concerns bed bugs (Cimex lectularius). The test is described as follows: Bed bug mortality on treated filter paper. It is filed as in vivo. The following applies: 24 h.
Test [3] deals with bed bugs (Cimex lectularius). Kind of test: Bed bug mortality on treated filter paper. The format is in vivo. As to conditions: Cimex lectularius, 24 h. As for the experimental part: Knockdown data and mortality for volatile pyrethroids against bed bugs (Cimex lectularius): Compounds were dissolved in acetone to yield concentrations of 100 μg/cm^2, 10 μg/cm^2, and 1 μg/cm^2 and 47 mm filter paper disks were treated. Acetone-treated filter paper was used as a negative control. Mixed stages (nymphs and adults) of a laboratory colony of the bed bug Cimex lectularius were placed on the treated filter paper in glass Petri dishes and mortality was recorded 24 h later, at which time bed bugs were removed to untreated surfaces. 24 h after this transfer another assessment of mortality was made to see if any dead or moribund bugs had recovered.

The subject of test [4] is Ae. aegypti mosquitoes. Kind of test: Sleeve bite protection assay on treated uniform fabric, mosquitoes. The format is in vivo, Aedes aegypti (Orlando, 1952). As for the experimental part:
Biological Evaluation: Bite protection assays were conducted with laboratory-reared 7-12 day old mosquitoes or sand flies. The species used throughout these studies are Aedes aegypti (Orlando, 1952) and Phlebotomus papatasi sand flies (Jerusalem, 1983). Females were pre-selected using either a hand draw box or a mechanical aspirator. An assay was conducted by wearing sewn sleeves made from clothing material. Treated specimens were assayed with untreated controls to correct for the bite resistance afforded by material construction and composition. The untreated control was tested at the beginning of the experiment, followed by successively higher candidate repellent concentrations on sleeves. Sleeves were sewn from a cut out single ply trapezoidal pattern (33.2 cm×21 cm×25.5 cm height) of material. […] Permethrin was 35:65cis: trans, 95.85% technical material. Experimental repellents were received as neat samples with <5% impurities. The treatment occurred by dissolution of repellent in suitable quantity of acetone to saturate the clothing, but minimizing excess solution. Excess solution was quantified and this amount of excess was then used to calculate the estimated amount of repellent applied to the material. […] The photoperiod was 12:12. The mosquito cages were approximately 60000 cm^3 and each contained 175 to 225 female mosquitoes. […] Cages for sand fly work were slightly smaller (15000 cm^3) and constructed of acrylic for filming purposes and with screens on the exterior edges to allow air flow through the system. About 20-40 sand flies were released in cages for each assay. Assays started when the sleeved arm was inserted through the sleeve into the cage. Normally the hand was protected by a glove, but there were situations (i.e. sand fly data presented here) when the ability of a repellent to protect the untreated hand was determined. The assay periods were 15 min for the mosquitoes and 25-30 minutes for sand flies. The insects were allowed to land, probe and possibly bloodfeed during this time. At the conclusion of the experiment, all insects were knocked down or aspirated and the percentage that bloodfed of the total female test population in the cage was recorded. The protect level was calculated by Abbott's formula as a percentage reduction in bites compared to the untreated fabric control sleeve. Specific conditions for bioassays are noted with corresponding data contained in the Tables.

Setting [5] is: ACU (50/50 NYCO) sleeve, glove on hand, 15 min, permethrin 0.118, transfluthrin 0.108, TL-I-107 0.107, TL-I-141 0.109, TL-I-105 0.107, TL-I-73 0.102 mg/cm^2.
The mark [6] stands for this setting: ACU (50/50 NYCO) sleeve, glove on hand, Abbott's formula vs untreated sleeve, concentrations as E1.
[7] abbreviates: ACU (50/50 NYCO) sleeve, glove on hand, concentrations as E1.
Where [8] appears, read: ACU sleeve, stored one year then tested, concentrations as E1.
Where [9] appears, read: ACU sleeve, treated specimens stored in refrigerator for one year then tested, concentrations as E1.

What is called mortality is the share of the test organisms that died. Take `CC(C)=C[C@@H]1[C@@H](C(=O)OCc2c(F)c(F)c(C)c(F)c2F)C1(C)C` [TL-I-105]: in test [1] (2.5 nM\cm^2, K&D module), the “Knockdown 6 min (%)” value amounted to 98%, the “Knockdown 24 hours (%)” value is 100% and the “Not feeding 3 minutes (%)” value came to 100%. In addition, in test [1] (2.5 nmol/cm^2, K&D module), the “Knockdown 1 hour (%)” value was 100%. In test [1] (25 nM\cm^2, K&D module), the “Knockdown 6 min (%)” value is recorded as 100%, the “Knockdown 24 hours (%)” value is recorded as 100% and the “Not feeding 3 minutes (%)” value worked out at 100%. For the same compound, in test [1] (25 nmol/cm^2, K&D module), the “Knockdown 1 hour (%)” value is given as 100%. Further, in test [1], the mortality at 0.0025 µM came to 100% and the mortality at 0.025 µM was determined as 100%. In test [2], the mortality at 5 µg/cm2 came to 100%. Also, in test [3], the mortality at 1 µg/cm2 was determined as 10%, the mortality at 10 µg/cm2 turned out to be 100% and the mortality at 100 µg/cm2 turned out to be 100%. The “Blood-fed #” value in test [4] (setting [5]) is recorded as 0 #. Also, the “Bite Protection (%)” value in test [4] (setting [6]) came to 100%. Further, the “Fed (%)” value in test [4] (setting [7]) worked out at 0.0%. Besides, in test [4] (setting [8]), the “Bite Protection (%)” value worked out at 100% and the “Fed (%)” value amounted to 0.0%. Moreover, the “Blood-fed #” value in test [4] (setting [9]) is recorded as 0 #.

In the case of `CC(C)=C[C@@H]1[C@@H](C(=O)OCc2c(F)c(F)cc(F)c2F)C1(C)C` [TL-I-107], in test [1] (2.5 nM\cm^2, K&D module), the “Knockdown 6 min (%)” value is given as 100%, the “Knockdown 24 hours (%)” value amounted to 100% and the “Not feeding 3 minutes (%)” value was 100%. The “Knockdown 1 hour (%)” value in test [1] (2.5 nmol/cm^2, K&D module) worked out at 100%. For the same compound, in test [1] (25 nM\cm^2, K&D module), the “Knockdown 6 min (%)” value was 100%, the “Knockdown 24 hours (%)” value is 100% and the “Not feeding 3 minutes (%)” value came to 100%. Also, the “Knockdown 1 hour (%)” value in test [1] (25 nmol/cm^2, K&D module) is reported as 100%. In addition, in test [1], the mortality at 0.0025 µM turned out to be 100% and the mortality at 0.025 µM came out at 100%. The mortality at 5 µg/cm2 in test [2] amounted to 100%. In test [3], this compound registered a mortality at 1 µg/cm2 of 0%, a mortality at 10 µg/cm2 of 100% and a mortality at 100 µg/cm2 of 100%. Moreover, in test [4] (setting [5]), the “Blood-fed #” value is 0 #. Also, the “Bite Protection (%)” value in test [4] (setting [6]) is recorded as 100%. For the same compound, in test [4] (setting [7]), the “Fed (%)” value amounted to 0.0%. Also, in test [4] (setting [8]), the “Bite Protection (%)” value is 100% and the “Fed (%)” value amounted to 0.0%. The “Blood-fed #” value in test [4] (setting [9]) is listed as 0 #.
